Reference: article PMC2752324 (Bioorganic & medicinal chemistry letters, 2008)

Target: T1, tissue-nonspecific alkaline phosphatase (TNAP) (Homo sapiens, UniProt P05186)
T1 sequence (P05186 18-502 limits assumed): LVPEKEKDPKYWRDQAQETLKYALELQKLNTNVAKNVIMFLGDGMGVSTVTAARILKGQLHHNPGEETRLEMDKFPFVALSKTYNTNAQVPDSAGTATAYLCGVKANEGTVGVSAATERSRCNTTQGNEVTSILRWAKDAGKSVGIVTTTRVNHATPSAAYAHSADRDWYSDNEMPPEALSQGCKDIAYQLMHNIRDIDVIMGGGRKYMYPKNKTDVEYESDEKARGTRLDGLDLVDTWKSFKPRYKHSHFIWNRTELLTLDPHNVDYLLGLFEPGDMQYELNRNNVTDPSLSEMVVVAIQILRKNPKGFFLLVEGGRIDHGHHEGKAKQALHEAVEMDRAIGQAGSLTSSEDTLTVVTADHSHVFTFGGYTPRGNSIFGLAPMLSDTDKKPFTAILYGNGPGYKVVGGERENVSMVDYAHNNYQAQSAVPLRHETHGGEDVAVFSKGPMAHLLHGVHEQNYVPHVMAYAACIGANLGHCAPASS
Experiment: TNAP luminescence-based inhibition assay
Type: biochemical

Row | SMILES | improvement in potency (4 versus tricyclic derivative 3) | selectivity for TNAP (versus PLAP and GAPDH) | times more potent against TNAP (versus screening hit 1)
1 | O=C(c1[nH]nc2c1COc1ccccc1-2)N1CCCC1 [Compound 4] | 3 fold | – | –
2 | O=C(NCCO)c1cc(-c2ccc(Cl)c(Cl)c2Cl)n[nH]1 [Compound 9v] | – | at least 2000 fold | approximately 200 times
